Experiment [1] addresses Macrophage-stimulating protein receptor (Homo sapiens, UniProt Q04912). As to the kind of experiment: Selectivity interaction (Kinase panel (Z-LYTE Assay)) EUB0001632a MST1R. Particulars: at 10 µM.
The target of experiment [2] is Mitogen-activated protein kinase 6 (Homo sapiens) (UniProt Q16659). As to the kind of experiment: Selectivity interaction (Ambit KINOMEscan and KiNATiv profiling in Jurkat cells) EUB0000090b MAPK6. Particulars: at 1 µM. In kind it is cell-based.
Chain of Mitogen-activated protein kinase 6 (Homo sapiens) (Q16659 whole entry): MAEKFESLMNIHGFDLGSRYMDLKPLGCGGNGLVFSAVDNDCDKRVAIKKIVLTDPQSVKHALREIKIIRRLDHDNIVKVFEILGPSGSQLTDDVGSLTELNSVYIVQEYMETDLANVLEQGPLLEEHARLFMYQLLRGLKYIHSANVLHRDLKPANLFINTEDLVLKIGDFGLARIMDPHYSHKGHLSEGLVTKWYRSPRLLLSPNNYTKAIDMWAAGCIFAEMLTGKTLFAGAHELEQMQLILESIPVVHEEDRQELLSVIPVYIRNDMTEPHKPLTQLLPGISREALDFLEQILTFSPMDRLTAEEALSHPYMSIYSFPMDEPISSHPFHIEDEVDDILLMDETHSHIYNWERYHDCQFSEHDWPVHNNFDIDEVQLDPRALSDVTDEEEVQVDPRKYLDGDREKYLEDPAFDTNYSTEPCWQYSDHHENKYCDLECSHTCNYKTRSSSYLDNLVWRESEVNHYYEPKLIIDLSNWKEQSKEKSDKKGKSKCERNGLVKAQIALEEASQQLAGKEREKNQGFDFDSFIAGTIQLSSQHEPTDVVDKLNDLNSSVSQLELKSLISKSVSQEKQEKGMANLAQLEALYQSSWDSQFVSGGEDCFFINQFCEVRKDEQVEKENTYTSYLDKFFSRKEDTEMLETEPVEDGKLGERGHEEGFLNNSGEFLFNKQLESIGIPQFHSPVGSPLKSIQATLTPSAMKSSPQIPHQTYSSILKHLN
Experiment [3] addresses Calcium/calmodulin-dependent protein kinase type 1 (Homo sapiens) (UniProt Q14012). As to the kind of experiment: Selectivity interaction (KinomeScan (DiscoverX)) EUB0000666a CAMK1. Particulars: at 10 µM.
The target of experiment [4] is T1, Dual specificity mitogen-activated protein kinase kinase 4 (Homo sapiens) (UniProt P45985).
T1 sequence (whole entry): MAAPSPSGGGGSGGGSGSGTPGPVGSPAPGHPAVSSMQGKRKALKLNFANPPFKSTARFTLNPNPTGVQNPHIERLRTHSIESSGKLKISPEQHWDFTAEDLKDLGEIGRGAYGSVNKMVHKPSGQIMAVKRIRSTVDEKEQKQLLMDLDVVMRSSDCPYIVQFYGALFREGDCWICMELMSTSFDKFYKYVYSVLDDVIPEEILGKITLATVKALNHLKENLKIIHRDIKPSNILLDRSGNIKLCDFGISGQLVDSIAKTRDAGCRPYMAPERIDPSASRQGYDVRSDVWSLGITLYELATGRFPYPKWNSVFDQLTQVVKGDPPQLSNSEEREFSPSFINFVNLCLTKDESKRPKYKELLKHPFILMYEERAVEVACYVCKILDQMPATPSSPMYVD
Kind of experiment: Selectivity interaction (KinomeScan (DiscoverX)) EUB0000229b MAP2K4. Particulars: at 10 µM.

The target of experiment [5] is T2, Serine/threonine-protein kinase Sgk1 (Homo sapiens) (UniProt O00141).
T2 sequence (whole entry): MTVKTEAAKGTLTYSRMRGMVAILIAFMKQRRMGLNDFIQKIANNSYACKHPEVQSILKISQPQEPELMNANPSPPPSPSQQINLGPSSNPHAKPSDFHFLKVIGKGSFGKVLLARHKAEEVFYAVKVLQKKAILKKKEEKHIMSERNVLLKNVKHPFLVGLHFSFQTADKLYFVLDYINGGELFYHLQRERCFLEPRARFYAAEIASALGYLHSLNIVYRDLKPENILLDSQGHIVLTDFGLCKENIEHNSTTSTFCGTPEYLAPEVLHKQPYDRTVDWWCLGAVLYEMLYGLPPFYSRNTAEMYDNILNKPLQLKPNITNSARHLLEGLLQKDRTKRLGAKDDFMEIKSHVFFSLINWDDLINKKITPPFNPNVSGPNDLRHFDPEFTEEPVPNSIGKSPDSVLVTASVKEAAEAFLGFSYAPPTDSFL
As to the kind of experiment: Selectivity interaction (KinomeScan (DiscoverX)) EUB0001079a SGK1. Particulars: at 1 µM.

For experiment [6], the target named is 5'-AMP-activated protein kinase catalytic subunit alpha-1 (Homo sapiens, UniProt Q13131). Kind of experiment: Selectivity interaction (ActivX KiNativ screen (kinase selectivity in THP-1 cell lysates)) EUB0000639a PRKAA1. In kind it is subcellular. Particulars: lysate.
Chain of 5'-AMP-activated protein kinase catalytic subunit alpha-1 (Q13131 whole entry, looked up): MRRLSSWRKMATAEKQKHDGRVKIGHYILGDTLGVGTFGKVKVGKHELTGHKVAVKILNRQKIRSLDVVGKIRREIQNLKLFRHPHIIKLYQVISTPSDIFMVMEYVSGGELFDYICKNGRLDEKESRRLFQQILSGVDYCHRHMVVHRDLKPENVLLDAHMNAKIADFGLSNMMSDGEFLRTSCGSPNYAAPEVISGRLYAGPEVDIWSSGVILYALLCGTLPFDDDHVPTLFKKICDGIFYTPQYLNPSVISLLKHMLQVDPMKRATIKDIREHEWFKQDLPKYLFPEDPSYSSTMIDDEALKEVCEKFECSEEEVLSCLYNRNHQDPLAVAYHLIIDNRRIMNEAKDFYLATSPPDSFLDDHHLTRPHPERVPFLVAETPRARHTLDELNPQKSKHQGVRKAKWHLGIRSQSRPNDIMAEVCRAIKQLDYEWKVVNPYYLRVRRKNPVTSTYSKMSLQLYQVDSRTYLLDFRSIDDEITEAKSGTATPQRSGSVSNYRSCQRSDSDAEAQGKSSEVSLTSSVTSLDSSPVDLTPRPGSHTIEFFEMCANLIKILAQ
Experiment [7] concerns the target T3, Serine/threonine-protein kinase TBK1 (Homo sapiens) (UniProt Q9UHD2).
T3 sequence (whole entry): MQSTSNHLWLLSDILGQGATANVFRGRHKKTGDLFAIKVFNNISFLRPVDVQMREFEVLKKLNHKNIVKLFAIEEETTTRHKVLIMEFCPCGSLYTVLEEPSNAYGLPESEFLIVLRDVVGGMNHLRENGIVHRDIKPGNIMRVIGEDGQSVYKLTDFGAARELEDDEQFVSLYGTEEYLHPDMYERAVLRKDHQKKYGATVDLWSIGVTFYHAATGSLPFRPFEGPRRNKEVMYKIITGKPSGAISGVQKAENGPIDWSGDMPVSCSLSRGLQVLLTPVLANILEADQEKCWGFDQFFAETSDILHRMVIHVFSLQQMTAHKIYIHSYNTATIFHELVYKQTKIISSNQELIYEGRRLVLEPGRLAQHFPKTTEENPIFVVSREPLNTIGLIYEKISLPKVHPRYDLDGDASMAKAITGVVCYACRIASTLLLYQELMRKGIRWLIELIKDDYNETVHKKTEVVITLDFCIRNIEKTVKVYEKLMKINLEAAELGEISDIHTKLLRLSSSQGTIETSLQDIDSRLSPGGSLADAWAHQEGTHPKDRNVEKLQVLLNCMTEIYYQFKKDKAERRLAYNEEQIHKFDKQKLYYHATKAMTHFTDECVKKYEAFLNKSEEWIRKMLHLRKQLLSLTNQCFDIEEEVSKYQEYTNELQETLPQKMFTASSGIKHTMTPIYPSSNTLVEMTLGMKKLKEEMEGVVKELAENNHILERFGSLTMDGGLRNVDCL
Kind of experiment: Selectivity interaction (KinomeScan (DiscoverX)) EUB0000618a TBK1. Particulars: at 10 µM.

Structures are written as SMILES.

Chain of Calcium/calmodulin-dependent protein kinase type 1 (Homo sapiens) (Q14012 whole entry, looked up): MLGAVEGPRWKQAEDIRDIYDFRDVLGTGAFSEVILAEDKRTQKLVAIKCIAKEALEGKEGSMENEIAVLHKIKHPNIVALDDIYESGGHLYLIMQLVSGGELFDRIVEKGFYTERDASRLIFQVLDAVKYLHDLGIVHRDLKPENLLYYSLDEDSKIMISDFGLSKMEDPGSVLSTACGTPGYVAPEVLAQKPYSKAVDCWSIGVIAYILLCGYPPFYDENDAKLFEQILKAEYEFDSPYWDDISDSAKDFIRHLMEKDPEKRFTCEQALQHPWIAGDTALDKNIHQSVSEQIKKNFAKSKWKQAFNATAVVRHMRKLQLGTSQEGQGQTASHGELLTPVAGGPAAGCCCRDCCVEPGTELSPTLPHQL
Chain of Macrophage-stimulating protein receptor (Q04912 25-304 limits assumed): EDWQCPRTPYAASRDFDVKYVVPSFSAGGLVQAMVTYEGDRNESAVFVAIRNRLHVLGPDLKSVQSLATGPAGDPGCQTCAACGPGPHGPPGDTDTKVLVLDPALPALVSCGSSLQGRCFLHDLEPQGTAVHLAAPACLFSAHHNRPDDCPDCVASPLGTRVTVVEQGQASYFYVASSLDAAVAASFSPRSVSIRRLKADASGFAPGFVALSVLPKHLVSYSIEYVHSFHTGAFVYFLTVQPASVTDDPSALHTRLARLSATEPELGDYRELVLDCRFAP
Chain of Macrophage-stimulating protein receptor (Q04912 310-1400 limits assumed): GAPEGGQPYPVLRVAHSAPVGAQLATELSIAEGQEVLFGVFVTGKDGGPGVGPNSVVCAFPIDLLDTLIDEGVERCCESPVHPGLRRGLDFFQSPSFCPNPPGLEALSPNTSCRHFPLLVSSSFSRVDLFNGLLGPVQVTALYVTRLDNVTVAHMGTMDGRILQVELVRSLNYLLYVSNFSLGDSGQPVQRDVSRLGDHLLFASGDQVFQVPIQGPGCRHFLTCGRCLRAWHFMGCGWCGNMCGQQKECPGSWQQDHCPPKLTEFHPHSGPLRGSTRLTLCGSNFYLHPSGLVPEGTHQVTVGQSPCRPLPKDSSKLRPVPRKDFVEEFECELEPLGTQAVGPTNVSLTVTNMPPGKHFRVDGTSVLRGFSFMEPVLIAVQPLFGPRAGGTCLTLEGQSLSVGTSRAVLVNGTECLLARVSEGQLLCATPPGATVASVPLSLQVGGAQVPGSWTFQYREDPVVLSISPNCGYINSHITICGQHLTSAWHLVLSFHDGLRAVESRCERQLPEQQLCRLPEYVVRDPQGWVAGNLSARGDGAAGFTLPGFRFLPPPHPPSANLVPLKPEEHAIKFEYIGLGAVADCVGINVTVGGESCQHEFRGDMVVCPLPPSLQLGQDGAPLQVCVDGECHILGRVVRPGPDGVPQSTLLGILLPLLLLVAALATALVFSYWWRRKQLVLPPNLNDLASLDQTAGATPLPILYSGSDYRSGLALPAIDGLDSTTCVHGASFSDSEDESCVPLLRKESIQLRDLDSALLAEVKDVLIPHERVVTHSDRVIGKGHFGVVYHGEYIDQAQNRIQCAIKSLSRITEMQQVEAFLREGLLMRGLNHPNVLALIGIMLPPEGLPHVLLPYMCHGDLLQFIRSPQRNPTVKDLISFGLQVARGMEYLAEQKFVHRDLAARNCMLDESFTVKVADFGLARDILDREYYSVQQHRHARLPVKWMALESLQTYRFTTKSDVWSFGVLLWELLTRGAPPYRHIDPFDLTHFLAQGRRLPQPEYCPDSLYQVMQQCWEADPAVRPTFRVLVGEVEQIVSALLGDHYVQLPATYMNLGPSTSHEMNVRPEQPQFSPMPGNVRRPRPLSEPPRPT

In the case of `Cn1cc(-n2cnc3c(NCc4nc5cc(Cl)c(Cl)cc5[nH]4)nc(N4CCOCC4)nc32)cn1`, the % of control in experiment [1] is -2.62%.

With `CN(C)C/C=C/C(=O)Nc1ccc(C(=O)N2CCCC(Nc3ncc(Cl)c(-c4c[nH]c5ccccc45)n3)C2)cc1` (stereo unspecified), the % of control in experiment [2] is 40%.

`O=C(NOC[C@H](O)CO)c1ccc(F)c(F)c1Nc1ccc(I)cc1F`: the % of control in experiment [3] stood at 98%.

`COc1cc(N(C)c2ccnc3ccc(C(F)(F)F)cc23)cc(OC)c1OC` displayed a % binding in experiment [4] of 100%.

Consider `Nc1cnc(N2CCc3cc(S(=O)(=O)Nc4c(F)cc(Cl)cc4F)cc(N4CCCC4=O)c32)nc1` [TP-020n], for which the % of control in experiment [5] stood at 100%.

On to `CC[C@@H]1[C@H](F)C(=O)N[C@@H]1COc1nccc2cc(C(N)=O)c(OC)cc12` [ZIMLOVISERTIB], for which the % of inhibition is 16% in experiment [6] (at 0.01 µM); 21.7% in experiment [6] (at 0.04 µM); 11.2% in experiment [6] (at 0.2 µM); 11.8% in experiment [6] (at 1 µM); 28.8% in experiment [6] (at 5 µM).

For the molecule `O[C@H]1CC[C@H](Nc2ncc3nc(Nc4c(F)cc(F)cc4F)n([C@H]4CCOC4)c3n2)CC1`, the % of control in experiment [7] came out at 74%.
